Measured values: patent US11691972B2, “Compounds for targeted degradation of BRD9” (C4 Therapeutics, Inc., priority 2020, dated 2023)

The compounds below were run against T1, BRD9 (Homo sapiens, UniProt Q9H8M2) (assay: HiBiT BRD9 degradation assay in 293T.166 (BRD9-HiBiT) cells). Settings: Table 1; 293T.166 cells, 2.0 hours; class symbols; read-out: HiBiT-Degradation 293T.166 BRD9 2.0 hours (DC50).
T1 sequence (Q9H8M2 1-597): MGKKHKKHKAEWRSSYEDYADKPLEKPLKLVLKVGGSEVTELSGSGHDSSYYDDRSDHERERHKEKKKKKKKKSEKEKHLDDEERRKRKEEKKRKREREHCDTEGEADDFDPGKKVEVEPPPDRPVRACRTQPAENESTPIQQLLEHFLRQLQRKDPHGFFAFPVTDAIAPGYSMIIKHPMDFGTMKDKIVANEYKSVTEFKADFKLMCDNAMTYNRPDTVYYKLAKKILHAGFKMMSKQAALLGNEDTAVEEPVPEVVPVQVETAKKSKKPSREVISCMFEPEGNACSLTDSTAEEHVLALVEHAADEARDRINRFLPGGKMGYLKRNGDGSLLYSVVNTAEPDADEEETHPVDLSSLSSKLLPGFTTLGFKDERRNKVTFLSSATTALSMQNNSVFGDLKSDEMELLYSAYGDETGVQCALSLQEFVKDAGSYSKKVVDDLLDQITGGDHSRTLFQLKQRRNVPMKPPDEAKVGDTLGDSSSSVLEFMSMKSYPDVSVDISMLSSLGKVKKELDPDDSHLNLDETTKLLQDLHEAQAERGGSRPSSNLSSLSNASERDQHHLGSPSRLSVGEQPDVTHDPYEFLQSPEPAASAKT
Format: cell-based
Parameters: endogenously expressing BRD9 with HiBiT fusion tag via CRISPR; host or cells: 293T.166 (BRD9-HiBiT), also expressing LgBiT ectopically
How it was run: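 Luminescence from the Nano-Glo HiBiT lytic reagent quantified BRD9 loss after compounds (top 10 μM, half-log, 11 points, duplicates) were incubated 2 h at 37° C. with 10,000 293T.166 BRD9-HiBiT/LgBiT cells per well, with controls lacking compound or lacking reagent.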

Row | Structure (SMILES) | DC50
1 | COc1cc(-c2cn(C)c(=O)c3cnccc23)cc(OC)c1CN1CCN(C(=O)CC2CCN(c3ccc(NC4CCC(=O)NC4=O)cc3C(F)(F)F)CC2)CC12CC2 (centres unmarked) [Compound 59] | < 100 nM
2 | COc1cc(-c2cn(C)c(=O)c(C)c2C)cc(OC)c1CN1CCN(C(=O)CC2CCN(c3ccc(NC4CCC(=O)NC4=O)cc3C(F)(F)F)CC2)CC12CC2 (centres unmarked) [Compound 60] | < 100 nM
3 | COc1cc(-c2cn(C)c(=O)c(C)c2C)cc(OC)c1CN1CCN(C(=O)CC2CCN(c3ccc(NC4CCC(=O)NC4=O)cc3C(F)(F)F)CC2)CC1 (centres unmarked) [Compound 61] | < 100 nM
4 | COc1cc(-c2cn(C)c(=O)c3ccccc23)cc(OC)c1CN1CCN(C(=O)CC2CCN(c3ccc(NC4CCC(=O)NC4=O)cc3C(F)(F)F)CC2)CC1 (centres unmarked) [Compound 62] | < 100 nM
5 | COc1cc(-c2cn(C)c(=O)c(C)c2C)cc(OC)c1CN1C2CCC1CN(C(=O)CC1CCN(c3ccc(NC4CCC(=O)NC4=O)cc3C(F)(F)F)CC1)C2 (centres unmarked) [Compound 63, 3-[4-[4-[2-[8-[[2,6-dimethoxy-4-(1,4,5-trimethyl-6-oxo-3-pyridyl)phenyl]methyl]-3,8-diazabicyclo[3.2.1]octan-3-yl]-2-oxo-ethyl]-1-piperidyl]-3-(trifluoromethyl)anilino]piperidine-2,6-dione] | < 100 nM
6 | COc1cc(-c2cn(C)c(=O)c3ccccc23)cc(OC)c1CN1C2CCC1CN(C(=O)CC1CCN(c3ccc(NC4CCC(=O)NC4=O)cc3C(F)(F)F)CC1)C2 (centres unmarked) [Compound 64] | < 100 nM
7 | COc1cc(-c2cn(C)c(=O)c(C)c2C)cc(OC)c1CN1C2CCC1CN(C(=O)CC1CCN(c3ccc(NC4CCC(=O)NC4=O)cc3F)CC1)C2 (centres unmarked) [Compound 65] | < 100 nM
8 | COc1cc(-c2cn(C)c(=O)c3[nH]ncc23)cc(Cl)c1CN1CCN(C(=O)CC2CCN(c3ccc(NC4CCC(=O)NC4=O)cc3F)CC2)CC1 (centres unmarked) [Compound 66] | < 100 nM
9 | COc1cc(-c2cn(C)c(=O)c3[nH]ncc23)cc(OC)c1CN1CCN(C(=O)CC2CCN(c3ccc(NC4CCC(=O)NC4=O)cc3Cl)CC2)CC1 (centres unmarked) [Compound 67] | < 100 nM
10 | COc1cc(-c2cn(C)c(=O)c3[nH]ncc23)cc(OC)c1CN1CCN(C(=O)CC2(O)CCN(c3ccc(NC4CCC(=O)NC4=O)cc3C(F)(F)F)CC2)CC1 (centres unmarked) [Compound 68, 3-[4-[4-[2-[4-[[2,6-dimethoxy-4-(6-methyl-7-oxo-1H-pyrazolo[3,4-c]pyridin-4-yl)phenyl]methyl]piperazin-1-yl]-2-oxo-ethyl]-4-hydroxy-1-piperidyl]-3-(trifluoromethyl)anilino]piperidine-2,6-dione] | < 100 nM
11 | COc1cc(-c2cn(C)c(=O)c3[nH]ncc23)cc(OC)c1CN1CCC(C2CCN(c3ccc(NC4CCC(=O)NC4=O)cc3)CC2)CC1 (centres unmarked) [Compound 70, 3-[4-[4-[1-[[2,6-dimethoxy-4-(6-methyl-7-oxo-1H-pyrazolo[3,4-c]pyridin-4-yl)phenyl]methyl]-4-piperidyl]-1-piperidyl]anilino]piperidine-2,6-dione] | < 100 nM
12 | COc1cc(-c2cn(C)c(=O)c3[nH]ncc23)cc(Cl)c1CN1CCC(C2CCN(c3ccc(NC4CCC(=O)NC4=O)cc3)CC2)CC1 (centres unmarked) [Compound 71] | < 100 nM
13 | COc1cc(-c2cn(C)c(=O)c3cnccc23)cc(Cl)c1CN1CCC(C2CCN(c3ccc(NC4CCC(=O)NC4=O)cc3)CC2)CC1 (centres unmarked) [Compound 72] | < 100 nM
14 | COc1cc(-c2cn(C)c(=O)c3[nH]ncc23)cc(Cl)c1CN1CCC(C2CCN(c3ccc(NC4CCC(=O)NC4=O)cc3F)CC2)CC1 (centres unmarked) [Compound 73, 3-[4-[4-[1-[[2-chloro-6-methoxy-4-(6-methyl-7-oxo-1H-pyrazolo[3,4-c]pyridin-4-yl)phenyl]methyl]-4-piperidyl]-1-piperidyl]-3-fluoro-anilino]piperidine-2,6-dione] | < 100 nM
15 | COc1cc(-c2cn(C)c(=O)c(C)c2C)cc(Cl)c1CN1CCC(C2CCN(c3ccc(NC4CCC(=O)NC4=O)cc3F)CC2)CC1 (centres unmarked) [Compound 74] | < 100 nM
16 | COc1cc(-c2cn(C)c(=O)c3[nH]ncc23)cc(Cl)c1CN1CCC(C2CCN(c3ccc(NC4CCC(=O)NC4=O)cc3Cl)CC2)CC1 (centres unmarked) [Compound 75] | < 100 nM
17 | COc1cc(-c2cn(C)c(=O)c(C)c2C)cc(Cl)c1CN1CCC(C2CCN(c3ccc(NC4CCC(=O)NC4=O)cc3Cl)CC2)CC1 (centres unmarked) [Compound 76] | < 100 nM
18 | COc1cc(-c2cn(C)c(=O)c3cnccc23)cc(Cl)c1CN1CCC(C2CCN(c3ccc(NC4CCC(=O)NC4=O)cc3Cl)CC2)CC1 (centres unmarked) [Compound 77] | < 100 nM
19 | COc1cc(-c2cn(C)c(=O)c3cnccc23)cc(Cl)c1CN1CCC(C2CCN(c3ccc(NC4CCC(=O)NC4=O)cc3F)CC2)CC1 (centres unmarked) [Compound 78] | < 100 nM

Row | Structure (SMILES) | DC50
20 | Cn1cc(-c2ccc(CN3CCC(C4CCN(c5ccc(NC6CCC(=O)NC6=O)cc5F)CC4)CC3)c(OC(F)(F)F)c2)c2ccncc2c1=O (centres unmarked) [Compound 79] | < 100 nM
21 | Cc1c(-c2ccc(CN3CCC(C4CCN(c5ccc(NC6CCC(=O)NC6=O)cc5F)CC4)CC3)c(OC(F)(F)F)c2)cn(C)c(=O)c1C (centres unmarked) [Compound 80] | < 100 nM
22 | Cc1c(-c2ccc(CN3CCC(C4CCN(c5ccc(NC6CCC(=O)NC6=O)cc5F)CC4)CC3)nc2)cn(C)c(=O)c1C (centres unmarked) [Compound 81] | < 100 nM
23 | COc1cc(-c2cn(C)c(=O)c(C)c2C)cnc1CN1CCC(C2CCN(c3ccc(NC4CCC(=O)NC4=O)cc3F)CC2)CC1 (centres unmarked) [Compound 82] | < 100 nM
24 | COc1cc(-c2cn(C)c(=O)c3cnccc23)cc(Cl)c1CN1CCC(C2CCN(c3ccc(NC4CCC(=O)NC4=O)cc3C(F)(F)F)CC2)CC1 (centres unmarked) [Compound 83, 3-[4-[4-[1-[[2-chloro-6-methoxy-4-(2-methyl-1-oxo-2,7-naphthyridin-4-yl)phenyl]methyl]-4-piperidyl]-1-piperidyl]-3-(trifluoromethyl)anilino]piperidine-2,6-dione] | < 100 nM
25 | COc1cc(-c2cn(C)c(=O)c3[nH]ncc23)cc(F)c1CN1CCC(C2CCN(c3ccc(NC4CCC(=O)NC4=O)cc3C(F)(F)F)CC2)CC1 (centres unmarked) [Compound 84] | < 100 nM
26 | COc1cc(-c2cn(C)c(=O)c(C)c2C)cc(Cl)c1CN1CCC(C2CCN(c3ccc(NC4CCC(=O)NC4=O)cc3C(F)(F)F)CC2)CC1 (centres unmarked) [Compound 85] | < 100 nM
27 | COc1cc(-c2cn(C)c(=O)c(C)c2C)cc(F)c1CN1CCC(C2CCN(c3ccc(NC4CCC(=O)NC4=O)cc3C(F)(F)F)CC2)CC1 (centres unmarked) [Compound 86] | < 100 nM
28 | COc1cc(-c2cn(C)c(=O)c3cnccc23)cc(F)c1CN1CCC(C2CCN(c3ccc(NC4CCC(=O)NC4=O)cc3C(F)(F)F)CC2)CC1 (centres unmarked) [Compound 87] | < 100 nM
29 | COc1cc(-c2cn(C)c(=O)c3cnccc23)cc(Cl)c1CN1CCC(C2CCN(c3ccc(NC4CCC(=O)NC4=O)nc3)CC2)CC1 (centres unmarked) [Compound 89] | < 100 nM
30 | Cc1c(-c2ccc(CN3CCC(C4CCN(c5ccc(NC6CCC(=O)NC6=O)nc5)CC4)CC3)c(OC(F)(F)F)c2)cn(C)c(=O)c1C (centres unmarked) [Compound 90] | < 100 nM
31 | Cc1c(-c2ccc(C(C)N3CCC(C4CCN(c5ccc(NC6CCC(=O)NC6=O)cc5F)CC4)CC3)c(OC(F)(F)F)c2)cn(C)c(=O)c1C (centres unmarked) [Compound 91] | < 100 nM
32 | CC(c1ccc(-c2cn(C)c(=O)c3cnccc23)cc1OC(F)(F)F)N1CCC(C2CCN(c3ccc(NC4CCC(=O)NC4=O)cc3F)CC2)CC1 (centres unmarked) [Compound 92] | < 100 nM
33 | CC(c1ccc(-c2cn(C)c(=O)c3cc(F)ccc23)cc1OC(F)(F)F)N1CCC(C2CCN(c3ccc(NC4CCC(=O)NC4=O)cc3F)CC2)CC1 (centres unmarked) [Compound 93] | < 100 nM
34 | COc1cc(-c2cn(C)c(=O)c3[nH]ncc23)cc(OC)c1CN1CCC(OC(=O)N2CCC(c3ccc(NC4CCC(=O)NC4=O)cc3)CC2)CC1 (centres unmarked) [Compound 94, [1-[[2,6-dimethoxy-4-(6-methyl-7-oxo-1H-pyrazolo[3,4-c]pyridin-4-yl)phenyl]methyl]-4-piperidyl] 4-[4-[(2,6-dioxo-3-piperidyl)amino]phenyl]piperidine-1-carboxylate] | < 100 nM
35 | COc1cc(-c2cn(C)c(=O)c3[nH]ncc23)cc(OC)c1CN1CCc2c(cccc2CN2CCC(c3ccc(NC4CCC(=O)NC4=O)cc3)C(F)(F)C2)C1 (centres unmarked) [Compound 95, 3-[4-[1-[[2-[[2,6-dimethoxy-4-(6-methyl-7-oxo-1H-pyrazolo[3,4-c]pyridin-4-yl)phenyl]methyl]-3,4-dihydro-1H-isoquinolin-5-yl]methyl]-3,3-difluoro-4-piperidyl]anilino]piperidine-2,6-dione] | < 100 nM
36 | COc1cc(-c2cn(C)c(=O)c3cnccc23)cc(OC)c1CN1CCc2c(CN3CCC(c4ccc(NC5CCC(=O)NC5=O)cc4)CC3)cccc2C1 (centres unmarked) [Compound 96] | < 100 nM
37 | COc1cc(-c2cn(C)c(=O)c3ccccc23)cc(OC)c1CN1CCc2c(CN3CCC(c4ccc(NC5CCC(=O)NC5=O)cc4)CC3)cccc2C1 (centres unmarked) [Compound 97] | < 100 nM
38 | COc1cc(-c2cn(C)c(=O)c3[nH]ncc23)cc(OC)c1CN1CCc2c(CN3CCC(c4ccc(NC5CCC(=O)NC5=O)cc4)CC3)cccc2C1 (centres unmarked) [Compound 98] | < 100 nM
